In turn, `O=C(N[C@@H](CC1CCCC1)C(=O)NC1CCCN(S(=O)(=O)c2ccccn2)CC1=O)c1ccco1` (stereo partly drawn) [Example 63, Furan-2-carboxylic acid {(S)-2-cyclopentyl-1-[3-oxo-1-(pyridine-2-sulfonyl)-azepan-4-ylcarbamoyl]ethyl}-amide] gave a melting point of 81 to 84 °C.

Turning to `O=C(N[C@@H](CC1CCCC1)C(=O)NC1CCCN(S(=O)(=O)c2ccccc2)CC1=O)c1ccco1` (stereo partly drawn) [Example 68, Furan-2-carboxylic acid [(S)-1-(1-benzenesulfonyl-3-oxo-azepan-4-ylcarbamoyl)-2-cyclopentyl-ethyl]-amide], the melting point fell in the range of 166 to 167 °C.

As for `CS(=O)(=O)N1CCCC(NC(=O)[C@H](CC2CCCC2)NC(=O)c2ccco2)C(=O)C1` (stereo partly drawn) [Example 65, Furan-2-carboxylic acid [(S)-2-cyclopentyl-1-(1-methanesulfonyl-3-oxo-azepan-4ylcarbamoyl)-ethyl]-amide], the melting point lay in the range of 167 to 170 °C.

Compound `O=C(N[C@@H](CC1CCCC1)C(=O)NC1CCCN(C(=O)c2ccccc2)CC1=O)c1ccco1` (stereo partly drawn) [Example 72, Furan-2-carboxylic acid {(S)-2-cyclopentyl-1-[3-oxo-1-(1-phenyl-methanoyl)-azepan-4-ylcarbamoyl]-ethyl}-amide] displayed a melting point of 97 to 100 °C.

`O=C(N[C@@H](CC1CCCC1)C(=O)NC1CCCN(C(=O)c2ccccc2)CC1=O)c1ccco1` (stereo partly drawn) [Example 71, Furan-2-carboxylic acid {(S)-2-cyclopentyl-1-[3-oxo-1-(1-phenyl-methanoyl)-azepan-4-ylcarbamoyl]-ethyl}-amide] had a melting point of 101 to 103 °C.

Take `O=C(N[C@@H](CC1CCCC1)C(=O)NC1CCCN(C(=O)OCc2ccccc2)CC1=O)c1ccco1` (stereo partly drawn) [Example 62, 4-{(S)-3-Cyclopentyl-2-[(1-furan-2-yl-methanoyl)-amino]-propanoylamino)-3-oxo-azepane-1-carboxylic acid benzyl ester]: the melting point is 66 to 68 °C.

The compound `O=C(N[C@@H](CC1CCCC1)C(=O)NC1CCCN(S(=O)(=O)c2ccccn2)CC1=O)c1ccco1` (stereo partly drawn) [Example 64, Furan-2-carboxylic acid {(S)-2-cyclopentyl-1-[3-oxo-1-(pyridine-2-sulfonyl)-azepan-4-ylcarbamoyl]ethyl}-amide] showed a melting point of 77 to 80 °C.

Compound `CS(=O)(=O)N1CCCC(NC(=O)[C@H](CC2CCCC2)NC(=O)c2ccco2)C(=O)C1` (stereo partly drawn) [Example 66, Furan-2-carboxylic acid [(S)-2-cyclopentyl-1-(1-methanesulfonyl-3-oxo-azepan-4-ylcarbamoyl)-ethyl]-amide] had a melting point of 158 to 161 °C.

`O=C(N[C@@H](CC1CCCC1)C(=O)NC1CCCN(C(=O)c2ccco2)CC1=O)c1ccco1` (stereo partly drawn) [Example 70, Furan-2-carboxylic acid {(S)-2-cyclopentyl-1-[1-(1-furan-2-yl-methanoyl)-3-oxo-azepan-4-ylcarbamoyl]-ethyl}-amide] registered a melting point of 85 to 88 °C.

Regarding `O=C(N[C@@H](CC1CCCC1)C(=O)NC1CCCN(C(=O)c2ccco2)CC1=O)c1ccco1` (stereo partly drawn) [Example 69, Furan-2-carboxylic acid {(S)-2-cyclopentyl-1-[1-(1-furan-2-yl-methanoyl)-3-oxo-azepan-4-ylcarbamoyl]-ethyl}-amide], the melting point lay within 88 to 89 °C.

The compound `O=C(N[C@@H](CC1CCCC1)C(=O)NC1CCCN(S(=O)(=O)c2ccccc2)CC1=O)c1ccco1` (stereo partly drawn) [Example 67, Furan-2-carboxylic acid [(S)-1-(1-benzenesulfonyl-3-oxo-azepan-4 ylcarbamoyl)-2-cyclopentyl-ethyl]-amide] came in with a melting point of 88 to 90 °C.

`O=C(N[C@@H](CC1CCCC1)C(=O)NC1CCCN(C(=O)OCc2ccccc2)CC1=O)c1ccco1` (stereo partly drawn) [Example 61, 4-{(S)-3-Cyclopentyl-2-[(1-furan-2-yl-methanoyl)-amino]-propanoylamino}-3-oxo-azepane-1-carboxylic acid benzyl ester] returned a melting point of 72 to 74 °C.

A word on the melting point: it is the temperature, or range, at which the solid turns liquid.

The record behind these values is patent publication US20060052365A1, “Protease inhibitors” (priority 2002, published 2006).
